Patent US12465050B2, “Compositions comprising a pyridine carboxylate herbicide and protoporphyrinogen oxidase (protox) inhibitor herbicides” (priority 2018, dated 2025)

Key:
Type in all cases: in vivo
[1] = system: Echinochloa crus-galli (barnyard grass); assay: Greenhouse postemergence herbicidal effect on ECHCG; conditions: Compound A 0, Bifenox 90 g/ha
Excerpt: (§1) Greenhouse Trial Methodology—Evaluation of Postemergence Herbicidal Effect
(§2) Seeds of the desired test plant species were planted in a 90:10% v/v (volume/volume) mixture of PRO-MIX® BX (Premier Tech Horticulture, Quakertown, Pa., USA) and PROFILE® GREENS GRADE™ (Profile Products LLC, Buffalo Grove, Ill., USA) planting mixture, which typically has a pH of 5.2 to 6.2 and an organic matter content of at least 50 percent, in plastic pots with a surface area of 103.2 square centimeters (cm^2). In some aspects or embodiments, to help ensure good germination and healthy plants, a fungicide treatment and/or other chemical or physical treatment was applied. The plants were grown for 7-36 days (d) in a greenhouse with an approximate 14-hour (h) photoperiod which was maintained at about 23° C. during the day and 22° C. during the night. Nutrients and water were added on a regular basis and supplemental lighting was provided with overhead metal halide 1000-Watt lamps as necessary. The plants were employed for testing when they reached the second or third true leaf stage.
(§3) Emulsifiable concentrates of each of each pyridine carboxylate herbicide (Compound A or Compound B) were prepared at 100 grams acid equivalent per liter (g ae/L). The emulsifiable concentrates also included a safener, cloquintocet mexyl, at 120 grams active ingredient per liter (g ai/L). […]
(§4) The treated plants and control plants were placed in a greenhouse as described above and watered by sub-irrigation to prevent wash-off of the test compounds. After 20-22 d, the condition of the test plants as compared with that of the control plants was determined visually and scored on a scale of 0 to 100 percent where 0 corresponds to no injury and 100 corresponds to complete kill.

Kochia scoparia (kochia) = assay: Greenhouse postemergence herbicidal effect on KCHSC
Excerpt: as §1, §2
(§5) Emulsifiable concentrates of each of each pyridine carboxylate herbicide (Compound A or Compound B) were prepared at 100 grams acid equivalent per liter (g ae/L). The emulsifiable concentrates also included a safener, cloquintocet mexyl, at 120 grams active ingredient per liter (g ai/L). An aliquot of each emulsifiable concentrate was placed in a 25 mL glass vial and diluted with an aqueous mixture of 1.25% (v/v) ACTIROB® B esterified rapeseed oil (Bayer Crop Science, Research Triangle Park, N.C., USA) or MSO® Concentrate with LECI-TECH® methylated soybean oil (Loveland Products, Loveland, Colo., USA) to obtain concentrated stock solutions at the highest application rate for each herbicide, based upon a 12 milliliter (mL) application volume at a rate of 187 liters per hectare (L/ha). The concentrated stock solutions were further diluted with an aqueous mixture of 1.25% v/v ACTIROB® B or MSO® Concentrate with LECI-TECH® to obtain stock solutions at reduced application rates for each herbicide. Spray solutions of the herbicide combinations (Compound A or Compound B plus PROTOX inhibitor herbicide) were prepared by adding weighed amounts or aliquots of the PROTOX inhibitor herbicides to the stock solutions of Compound A or Compound B to form 12-mL spray solutions in two-way combinations.
(§6) The spray solutions were applied to the plant material with an overhead Mandel track sprayer equipped with 8002E nozzles calibrated to deliver 187 L/ha over an application area of 0.503 square meters (m^2) at a spray height of 18 inches (43 centimeters (cm)) above the average plant canopy. Control plants were sprayed in the same manner with the solvent blank. All pyridine carboxylate herbicide (component a) application rates are given as “g ae/ha” and all PROTOX inhibitor herbicide (component b) application rates are given as “g ai/ha.”
as §4

Avena fatua (wild oat) = assay: Greenhouse postemergence herbicidal effect on AVEFA; conditions: Compound A 0, Bifenox 90 g/ha
Excerpt: as §1, §2, §3, §4

[2] = system: Brassica napus (spring rape); assay: Greenhouse postemergence herbicidal effect on BRSNN; conditions: Compound A 0, Bifenox 90 g/ha
Excerpt: as §1, §2, §5, §6, §4

[3] = system: Cirsium arvense (Canadian thistle); assay: Greenhouse postemergence herbicidal effect on CIRAR
Excerpt: as §1, §2, §5, §6, §4

[4] = system: Rumex obtusifolius (broad-leaf dock); assay: Greenhouse postemergence herbicidal effect on RUMOB; conditions: Compound A 0, Bifenox 90 g/ha
Excerpt: as §1, §2, §5, §6, §4

[5] = system: Setaria faberi (giant foxtail); assay: Greenhouse postemergence herbicidal effect on SETFA
Excerpt: as §1, §2, §5, §6, §4

[6] = system: Viola tricolor (wild pansy); assay: Greenhouse postemergence herbicidal effect on VIOTR
Excerpt: as §1, §2, §5, §6, §4

[7] = system: Digitaria sanguinalis (large crabgrass); assay: Greenhouse postemergence herbicidal effect on DIGSA; conditions: Compound A 0, Bifenox 90 g/ha
Excerpt: as §1, §2, §3, §4

[8] = system: Hordeum vulgare (spring barley); assay: Greenhouse postemergence phytotoxicity on crop HORVS; conditions: Compound A 0, Carfentrazone-ethyl 5 g/ha
Excerpt: as §1, §2, §5, §6, §4

[9] = system: Salsola kali (Russian thistle); assay: Greenhouse postemergence herbicidal effect on SASKR; conditions: Compound A 0, Carfentrazone-ethyl 5 g/ha
Excerpt: as §1, §2, §5, §6, §4

[10] = system: Polygonum convolvulus (wild buckwheat); assay: Greenhouse postemergence herbicidal effect on POLCO; conditions: Compound A 0, Carfentrazone-ethyl 5 g/ha
Excerpt: as §1, §2, §5, §6, §4

[11] = system: Triticum aestivum (spring wheat); assay: Greenhouse postemergence phytotoxicity on crop TRZAS; conditions: Compound A 0, Carfentrazone-ethyl 5 g/ha
Excerpt: as §1, §2, §5, §6, §4

[12] = Compound B 7.5, Saflufenacil 0 g/ha
[13] = Compound B 10, Saflufenacil 0 g/ha

COC(=O)c1cc(Oc2ccc(Cl)cc2Cl)ccc1[N+](=O)[O-] [Bifenox, methyl 5-(2,4-dichlorophenoxy)-2-nitrobenzoate, reference compound]
% visual injury, Obs [1]: 15% | % visual injury, Obs (Kochia scoparia (kochia); Compound A 0, Bifenox 90 g/ha): 73% | % visual injury, Obs (Avena fatua (wild oat)): 5% | % visual injury, Obs [2]: 23% | % visual injury, Obs ([3]; Compound A 0, Bifenox 90 g/ha): 18% | % visual injury, Obs [4]: 0% | % visual injury, Obs ([5]; Compound A 0, Bifenox 90 g/ha): 18% | % visual injury, Obs ([6]; Compound A 0, Bifenox 90 g/ha): 0% | % visual injury, Obs [7]: 25%

CCOC(=O)C(Cl)Cc1cc(-n2nc(C)n(C(F)F)c2=O)c(F)cc1Cl (stereo not drawn) [Carfentrazone-ethyl, ethyl α,2-dichloro-5-[4-(difluoromethyl)-4,5-dihydro-3-methyl-5-oxo-1H-1,2,4-triazol-1-yl]-4-fluorobenzenepropanoate, reference compound]
% visual injury, Obs (Kochia scoparia (kochia); Compound A 0, Carfentrazone-ethyl 5 g/ha): 20% | % visual injury, Obs [8]: 8% | % visual injury, Obs [9]: 68% | % visual injury, Obs [10]: 5% | % visual injury, Obs [11]: 0%

C#CCOC(=O)c1nc(-c2ccc3cc[nH]c3c2F)c(F)c(N)c1Cl [Compound B, propargyl 4-amino-3-chloro-5-fluoro-6-(7-fluoro-1H-indol-6-yl)pyridine-2-carboxylate]
% visual injury, Obs [3, 12]: 45% | % visual injury, Obs [3, 13]: 45% | % visual injury, Obs [5, 12]: 70% | % visual injury, Obs [5, 13]: 55% | % visual injury, Obs [6, 12]: 10% | % visual injury, Obs [6, 13]: 40%
